Data reported in US10624897B2, “Chlorobenzene substituted azaaryl compounds” (TAIPEI MEDICAL UNIVERSITY, priority 2015, dated 2020).

Columns and labels:
[1] = test system: RT-112 cells; assay: Western blot of G0/G1 regulatory proteins; type: cell-based; details: 24 h, FIG. 3C
Description: C. […] Apoptosis was assessed via detection of cleaved caspase-3 and PARP.
We observed that genes associated with cell cycle progression were decreased in MPT0L145-treated cells. […] This phenomenon was also observed in the cells treated with BGJ-398 (FIG. 3A). […] Next, we examined expression of G0/G1 regulatory proteins via western blot. […] The possibility of MPT0L145-induced apoptosis was further eliminated by examining cleavage of caspase-3 and its substrate, PARP, in 72 h, compared with paclitaxel (FIG. 3D).

[2] = molecular target: T1, PIM1 (Homo sapiens, UniProt P11309); assay: Kinase binding assay (Kd)
T1 construct: made in house; host or cells: E. coli BL21-derived host (T7 phage) for most kinases, HEK-293 for the rest
Description: (§1) Kinase assays. For most assays, kinase-tagged T7 phage strains were prepared in an E. coli host derived from the BL21 strain. E. coli were grown to log-phase and infected with T7 phage and incubated with shaking at 32° C. until lysis. The lysates were centrifuged and filtered to remove cell debris. The remaining kinases were produced in HEK-293 cells and subsequently tagged with DNA for qPCR detection. […] The liganded beads were blocked with excess biotin and washed with blocking buffer (SeaBlock (Pierce), 1% BSA, 0.05% Tween 20, 1 mM DTT) to remove unbound ligand and to reduce non-specific binding. […] All reactions were performed in polystyrene 96-well plates in a final volume of 0.135 ml. […] The kinase concentration in the eluates was measured by qPCR.
(§2) An 11-point 3-fold serial dilution of each test compound was prepared in 100% DMSO at 100× final test concentration and subsequently diluted to 1× in the assay (final DMSO concentration=1%). Most Kds were determined using a compound top concentration=30,000 nM.
(§3) Binding constants (Kds) were calculated with a standard dose-response curve using the Hill equation: […]
(§4) The Hill Slope was set to −1. Curves were fitted using a non-linear least square fit with the Levenberg-Marquardt algorithm.

[3] = molecular target: T2, FAK (Homo sapiens, UniProt Q05397); assay: Kinase binding assay (Kd)
T2 construct: made in house; host or cells: E. coli BL21-derived host (T7 phage) for most kinases, HEK-293 for the rest
Description: as §1, §2, §3, §4

[4] = molecular target: T3, RET (Homo sapiens, UniProt P07949); assay: Kinase binding assay (Kd)
T3 construct: made in house; host or cells: E. coli BL21-derived host (T7 phage) or HEK-293
Description: as §1, §2, §3, §4

[5] = molecular target: T4, ERK1 (Homo sapiens, UniProt P27361); assay: Kinase binding assay (Kd)
T4 construct: made in house; host or cells: E. coli BL21-derived host (T7 phage) for most kinases, HEK-293 for the rest
Description: as §1, §2, §3, §4

[6] = molecular target: T5, TYK2 (Homo sapiens, UniProt P29597); assay: Kinase binding assay (Kd)
T5 construct: made in house; host or cells: E. coli BL21-derived host (T7 phage) or HEK-293
Description: as §1, §2, §3, §4

[7] = molecular target: T6, IGF1R (Homo sapiens, UniProt P08069); assay: Kinase binding assay (Kd)
T6 construct: made in house; host or cells: E. coli BL21-derived host (T7 phage) for most kinases, HEK-293 for the rest
Description: as §1, §2, §3, §4

[8] = molecular target: T7, FLT3 (Homo sapiens, UniProt P36888); assay: Kinase binding assay (Kd)
T7 construct: made in house; host or cells: E. coli BL21-derived host (T7 phage) or HEK-293
Description: as §1, §2, §3, §4

[9] = molecular target: T8, IKK-alpha (Homo sapiens, UniProt O15111); assay: Kinase binding assay (Kd)
T8 construct: made in house; host or cells: E. coli BL21-derived host (T7 phage) for most kinases, HEK-293 for the rest
Description: as §1, §2, §3, §4

[10] = molecular target: T9, PLK3 (Homo sapiens, UniProt Q9H4B4); assay: Kinase binding assay (Kd)
T9 construct: made in house; host or cells: E. coli BL21-derived host (T7 phage) or HEK-293
Description: as §1, §2, §3, §4

[11] = molecular target: T10, BTK (Homo sapiens, UniProt Q06187); assay: Kinase binding assay (Kd)
T10 construct: made in house; host or cells: E. coli BL21-derived host (T7 phage) or HEK-293
Description: as §1, §2, §3, §4

[12] = molecular target: T11, BMPR2 (Homo sapiens, UniProt Q13873); assay: Kinase binding assay (Kd)
T11 construct: made in house; host or cells: E. coli BL21-derived host (T7 phage) or HEK-293
Description: as §1, §2, §3, §4

[13] = molecular target: T12, MET (Homo sapiens, UniProt P08581); assay: Kinase binding assay (Kd)
T12 construct: made in house; host or cells: E. coli BL21-derived host (T7 phage) for most kinases, HEK-293 for the rest
Description: as §1, §2, §3, §4

[14] = molecular target: T13, TGFBR1 (Homo sapiens, UniProt P36897); assay: Kinase binding assay (Kd)
T13 construct: made in house; host or cells: E. coli BL21-derived host (T7 phage) or HEK-293
Description: as §1, §2, §3, §4

[15] = molecular target: T14, AXL (Homo sapiens, UniProt P30530); assay: Kinase binding assay (Kd)
T14 construct: made in house; host or cells: E. coli BL21-derived host (T7 phage) or HEK-293
Description: as §1, §2, §3, §4

[16] = molecular target: T15, ROCK2 (Homo sapiens, UniProt O75116); assay: Kinase binding assay (Kd)
T15 construct: made in house; host or cells: E. coli BL21-derived host (T7 phage) or HEK-293
Description: as §1, §2, §3, §4

[17] = molecular target: T16, FGFR4 (Homo sapiens, UniProt P22455); assay: Kinase binding assay (Kd)
T16 construct: made in house; host or cells: E. coli BL21-derived host (T7 phage) or HEK-293
Description: as §1, §2, §3, §4

[18] = molecular target: T17, AKT2 (Homo sapiens, UniProt P31751); assay: Kinase binding assay (Kd)
T17 construct: made in house; host or cells: E. coli BL21-derived host (T7 phage) or HEK-293
Description: as §1, §2, §3, §4

[19] = molecular target: T18, MKNK2 (Homo sapiens, UniProt Q9HBH9); assay: Kinase binding assay (Kd)
T18 construct: made in house; host or cells: E. coli BL21-derived host (T7 phage) for most kinases, HEK-293 for the rest
Description: as §1, §2, §3, §4

[20] = molecular target: T19, MEK1 (Homo sapiens, UniProt Q02750); assay: Kinase binding assay (Kd)
T19 construct: made in house; host or cells: E. coli BL21-derived host (T7 phage) for most kinases, HEK-293 for the rest
Description: as §1, §2, §3, §4

[21] = molecular target: T20, PIK3CG (Homo sapiens, UniProt P48736); assay: Kinase binding assay (Kd)
T20 construct: made in house; host or cells: E. coli BL21-derived host (T7 phage) for most kinases, HEK-293 for the rest
Description: as §1, §2, §3, §4

[22] = molecular target: T21, VEGFR2 (Homo sapiens, UniProt P35968); assay: Kinase binding assay (Kd)
T21 construct: made in house; host or cells: E. coli BL21-derived host (T7 phage) or HEK-293
Description: as §1, §2, §3, §4

[23] = test system: MOLT-4; assay: MTT assay, cell viability; type: cell-based; details: Homo sapiens; MOLT-4, ALL, 72 hours; read-out: IC50 (μM, Mean ± SD)
Description: Cells were cultured in RPMI-1640 (RT-112, KMS-11, SNU-16, HT-29, HCT-116, NCI—H520, Hep3B, PLC/PRF/5, HL-60, MOLT-4) and DMEM (HepG2, MCF-7, MDA-MB-231) with 10% FBS (v/v) and Penicillin/Streptomycin (100 U/ml). FU-DDLS-1 cell line was maintained in DMEM:F12 medium with 10% FBS. LiSa-2 cell line was maintained in IMDM/RPMI-1640 in a 4:1 ratio supplemented with 10% FBS, 2 mmol/L L-glutamine, and 0.1 mg/mL gentamicin. Human umbilical vein endothelial cells (HUVECs) were grown to confluence on 1% collagen, and maintained in 90% Medium 199 with 25 U/ml heparin, 30 μg/ml endothelial cell growth supplement (ECGS) adjusted to contain 1.5 g/L sodium bicarbonate, 10% FBS and Penicillin/Streptomycin (100 U/ml) Cultures were maintained at 37° C. in a humidified atmosphere of 5% CO2/95% air.
Cells were seeded in 96-well plates (5,000 cells/well) and incubated overnight for attachment, and were then treated with indicated agents in 10% FBS-supplemented medium for 72 hours. The medium was replaced with MTT (0.5 mg/mL) at 37° C. for 1 hours. After removal of medium, the cells were lysed with 100 μL per well dimethyl sulfoxide (DMSO), and absorbance at 550 nm was measured with microplate reader. The relative cell viability (%) was expressed as a percentage relative to a DMSO control cells.

T7 sequence (P36888 27-993): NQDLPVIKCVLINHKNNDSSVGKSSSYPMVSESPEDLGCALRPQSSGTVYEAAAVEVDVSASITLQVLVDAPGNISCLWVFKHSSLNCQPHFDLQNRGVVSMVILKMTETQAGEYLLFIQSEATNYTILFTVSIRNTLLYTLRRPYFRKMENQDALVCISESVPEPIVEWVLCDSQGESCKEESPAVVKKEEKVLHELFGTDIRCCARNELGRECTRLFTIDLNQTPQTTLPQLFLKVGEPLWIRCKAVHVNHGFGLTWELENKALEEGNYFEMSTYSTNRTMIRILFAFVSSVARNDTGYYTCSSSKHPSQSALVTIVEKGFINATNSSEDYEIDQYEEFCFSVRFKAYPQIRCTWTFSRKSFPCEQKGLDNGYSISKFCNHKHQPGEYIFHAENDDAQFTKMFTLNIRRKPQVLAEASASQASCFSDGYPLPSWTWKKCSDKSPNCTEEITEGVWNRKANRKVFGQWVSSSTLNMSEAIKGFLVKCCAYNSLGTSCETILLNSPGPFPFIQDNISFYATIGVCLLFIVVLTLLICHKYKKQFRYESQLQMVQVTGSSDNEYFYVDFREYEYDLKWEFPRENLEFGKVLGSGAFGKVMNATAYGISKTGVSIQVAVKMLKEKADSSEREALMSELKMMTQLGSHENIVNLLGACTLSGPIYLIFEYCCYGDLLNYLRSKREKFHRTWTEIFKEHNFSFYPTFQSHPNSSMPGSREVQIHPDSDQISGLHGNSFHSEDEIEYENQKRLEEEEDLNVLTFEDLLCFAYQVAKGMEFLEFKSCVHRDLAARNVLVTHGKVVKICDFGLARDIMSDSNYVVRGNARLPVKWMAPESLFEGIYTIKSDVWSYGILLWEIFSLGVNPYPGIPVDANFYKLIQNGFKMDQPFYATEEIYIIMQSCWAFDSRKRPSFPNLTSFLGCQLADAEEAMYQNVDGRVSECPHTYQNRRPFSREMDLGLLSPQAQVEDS
T1 sequence (P11309 whole entry): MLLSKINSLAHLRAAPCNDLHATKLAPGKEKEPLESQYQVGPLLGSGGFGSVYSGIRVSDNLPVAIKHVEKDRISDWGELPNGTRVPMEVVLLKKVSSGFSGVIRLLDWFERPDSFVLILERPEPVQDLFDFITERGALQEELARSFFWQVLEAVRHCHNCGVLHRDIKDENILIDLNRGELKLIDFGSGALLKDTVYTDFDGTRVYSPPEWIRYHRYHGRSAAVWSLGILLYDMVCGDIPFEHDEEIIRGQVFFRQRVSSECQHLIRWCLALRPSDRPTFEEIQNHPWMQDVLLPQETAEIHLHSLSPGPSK
T2 sequence (Q05397 whole entry): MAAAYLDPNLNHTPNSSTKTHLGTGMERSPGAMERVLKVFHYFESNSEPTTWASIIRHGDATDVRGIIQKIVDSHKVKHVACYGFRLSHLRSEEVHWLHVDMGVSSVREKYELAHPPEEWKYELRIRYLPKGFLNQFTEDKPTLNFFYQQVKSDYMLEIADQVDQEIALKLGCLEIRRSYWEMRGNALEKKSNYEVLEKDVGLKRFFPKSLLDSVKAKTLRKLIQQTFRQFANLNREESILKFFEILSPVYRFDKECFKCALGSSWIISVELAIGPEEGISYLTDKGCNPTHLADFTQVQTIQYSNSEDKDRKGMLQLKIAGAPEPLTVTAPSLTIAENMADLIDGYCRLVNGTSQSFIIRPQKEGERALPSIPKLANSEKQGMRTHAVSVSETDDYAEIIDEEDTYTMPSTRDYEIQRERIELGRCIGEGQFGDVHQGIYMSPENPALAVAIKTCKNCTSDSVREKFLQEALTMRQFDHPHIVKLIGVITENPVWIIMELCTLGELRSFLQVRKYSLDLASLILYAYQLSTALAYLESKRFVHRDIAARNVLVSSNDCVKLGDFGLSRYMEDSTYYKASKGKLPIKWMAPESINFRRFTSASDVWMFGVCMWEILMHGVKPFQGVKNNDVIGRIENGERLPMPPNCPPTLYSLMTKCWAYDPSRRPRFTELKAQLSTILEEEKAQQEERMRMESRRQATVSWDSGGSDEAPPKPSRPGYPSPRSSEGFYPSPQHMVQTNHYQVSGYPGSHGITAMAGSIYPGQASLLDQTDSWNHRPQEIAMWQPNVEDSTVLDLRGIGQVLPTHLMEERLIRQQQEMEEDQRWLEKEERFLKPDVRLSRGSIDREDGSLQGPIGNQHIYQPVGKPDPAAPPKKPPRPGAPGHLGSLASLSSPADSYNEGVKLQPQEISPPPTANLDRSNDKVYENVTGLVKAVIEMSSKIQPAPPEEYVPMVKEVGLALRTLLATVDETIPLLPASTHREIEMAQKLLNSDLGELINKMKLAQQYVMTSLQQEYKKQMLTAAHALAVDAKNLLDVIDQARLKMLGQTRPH
T15 sequence (O75116 whole entry): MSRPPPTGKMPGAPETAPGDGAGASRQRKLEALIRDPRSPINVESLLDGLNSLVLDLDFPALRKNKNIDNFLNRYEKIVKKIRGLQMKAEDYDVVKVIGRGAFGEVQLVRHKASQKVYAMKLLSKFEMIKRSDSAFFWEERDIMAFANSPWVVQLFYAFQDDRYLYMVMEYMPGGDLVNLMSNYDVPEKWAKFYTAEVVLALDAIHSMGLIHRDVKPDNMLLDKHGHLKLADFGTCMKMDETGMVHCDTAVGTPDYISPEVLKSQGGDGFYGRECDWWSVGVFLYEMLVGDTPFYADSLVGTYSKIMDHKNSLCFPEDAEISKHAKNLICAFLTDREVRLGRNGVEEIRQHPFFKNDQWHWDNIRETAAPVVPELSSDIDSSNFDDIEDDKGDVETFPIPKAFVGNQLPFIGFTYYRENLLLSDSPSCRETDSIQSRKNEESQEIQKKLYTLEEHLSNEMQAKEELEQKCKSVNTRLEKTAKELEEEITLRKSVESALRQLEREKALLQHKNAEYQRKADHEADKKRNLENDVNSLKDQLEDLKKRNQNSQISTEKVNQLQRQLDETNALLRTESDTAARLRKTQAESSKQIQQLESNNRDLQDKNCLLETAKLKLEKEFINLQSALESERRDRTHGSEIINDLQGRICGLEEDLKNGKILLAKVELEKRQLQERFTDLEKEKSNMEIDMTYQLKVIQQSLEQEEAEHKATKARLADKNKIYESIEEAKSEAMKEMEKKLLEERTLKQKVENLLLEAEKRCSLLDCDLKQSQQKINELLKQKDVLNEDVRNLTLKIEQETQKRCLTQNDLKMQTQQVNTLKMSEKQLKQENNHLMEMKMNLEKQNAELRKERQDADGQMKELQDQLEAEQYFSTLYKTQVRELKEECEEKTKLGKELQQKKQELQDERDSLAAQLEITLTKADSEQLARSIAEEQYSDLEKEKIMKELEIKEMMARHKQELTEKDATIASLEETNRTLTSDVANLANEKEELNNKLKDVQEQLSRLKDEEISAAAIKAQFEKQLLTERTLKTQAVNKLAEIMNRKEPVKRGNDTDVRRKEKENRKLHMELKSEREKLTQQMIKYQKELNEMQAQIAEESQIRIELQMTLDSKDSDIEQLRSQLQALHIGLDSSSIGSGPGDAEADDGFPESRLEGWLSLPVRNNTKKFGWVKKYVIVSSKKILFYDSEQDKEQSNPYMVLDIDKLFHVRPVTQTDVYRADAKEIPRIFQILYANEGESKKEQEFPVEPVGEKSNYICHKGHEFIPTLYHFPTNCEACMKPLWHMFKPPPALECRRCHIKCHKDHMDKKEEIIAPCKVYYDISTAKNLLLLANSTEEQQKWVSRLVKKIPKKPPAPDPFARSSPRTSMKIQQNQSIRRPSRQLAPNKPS
T13 sequence (P36897 34-503): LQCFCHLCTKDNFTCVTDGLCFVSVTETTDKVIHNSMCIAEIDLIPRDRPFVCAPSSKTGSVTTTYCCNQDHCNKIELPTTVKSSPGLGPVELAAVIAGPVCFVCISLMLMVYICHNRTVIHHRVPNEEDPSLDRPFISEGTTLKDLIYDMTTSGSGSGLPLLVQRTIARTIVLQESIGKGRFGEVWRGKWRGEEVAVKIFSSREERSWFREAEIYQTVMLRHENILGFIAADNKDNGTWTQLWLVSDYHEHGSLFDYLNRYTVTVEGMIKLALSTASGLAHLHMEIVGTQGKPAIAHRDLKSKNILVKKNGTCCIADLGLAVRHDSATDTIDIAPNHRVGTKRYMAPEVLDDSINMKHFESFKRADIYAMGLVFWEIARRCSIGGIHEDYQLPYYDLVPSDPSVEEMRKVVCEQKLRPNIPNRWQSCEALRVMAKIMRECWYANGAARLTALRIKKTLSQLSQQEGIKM
T10 sequence (Q06187 whole entry): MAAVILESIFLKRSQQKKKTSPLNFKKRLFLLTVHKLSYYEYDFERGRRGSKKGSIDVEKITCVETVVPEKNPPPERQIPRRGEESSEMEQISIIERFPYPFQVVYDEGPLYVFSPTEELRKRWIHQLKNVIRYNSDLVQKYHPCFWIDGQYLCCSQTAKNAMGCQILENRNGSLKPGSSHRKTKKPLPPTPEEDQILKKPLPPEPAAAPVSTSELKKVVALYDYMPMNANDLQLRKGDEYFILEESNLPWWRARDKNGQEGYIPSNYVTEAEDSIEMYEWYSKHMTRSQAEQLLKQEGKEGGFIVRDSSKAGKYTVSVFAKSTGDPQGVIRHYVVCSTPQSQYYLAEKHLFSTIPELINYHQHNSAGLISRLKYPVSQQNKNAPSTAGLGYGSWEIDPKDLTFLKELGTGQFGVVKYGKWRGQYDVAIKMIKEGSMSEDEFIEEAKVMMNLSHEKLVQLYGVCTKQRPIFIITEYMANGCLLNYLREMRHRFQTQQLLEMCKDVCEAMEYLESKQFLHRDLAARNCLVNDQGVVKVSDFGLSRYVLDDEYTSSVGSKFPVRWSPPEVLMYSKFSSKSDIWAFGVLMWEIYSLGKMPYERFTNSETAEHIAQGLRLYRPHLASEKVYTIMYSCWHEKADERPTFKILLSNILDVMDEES

Kd [2]: > 10 µM
Kd [3]: > 10 µM
Kd [4]: > 10 µM
Kd [5]: > 10 µM
Kd [6]: 0.66 µM
Kd [7]: > 10 µM
Kd [8]: 1.3 µM
Kd [9]: > 10 µM
Kd [10]: > 10 µM
Kd [11]: > 10 µM
Kd [12]: > 10 µM
Kd [13]: > 10 µM
Kd [14]: > 10 µM
Kd [15]: > 10 µM
Kd [16]: > 10 µM
Kd [17]: 7.5 µM
Kd [18]: > 10 µM
Kd [19]: > 10 µM
Kd [20]: > 10 µM
Kd [21]: > 10 µM
Kd [22]: 3.1 µM
IC50 [23]: 3.7 ± 0.2 µM
SMILES: CCN1CCN(c2ccc(Nc3ncnc(N(C)C(=O)Nc4c(Cl)c(OC)c(Cl)c(OC)c4Cl)n3)cc2)CC1 [MPT0L145, 1-(4-((4-(4-ethylpiperazin-1-yl)phenyl)amino)-1,3,5-triazin-2-yl)-1-methyl-3-(2,4,6-trichloro-3,5-dimethoxyphenyl)urea]
cyclin E levels [1]: marked decrease
p16 level [1]: slight increase
